Reference: patent publication US4761398A, “Method of inducing birds to molt” (Embrex, Inc., priority 1986, dated 1988)

Legend:
[1] = tested on: single combed White Leghorn hens; test: Egg parameters (specific gravity, total egg weight, shell weight); assay type: in vivo
Description: (§1) During the experiment, two birds were assigned to each cage (12"×18"). The hens were maintained in their cages for two weeks prior to the molt. They received a 17 hour light: 7 hour dark photoperiod throughout this phase of the experiment. During this time, the following parameters were measured:(a) body weight (weekly); (b) feed consumption (all hens received a common layer ration, and the feed consumed during this two week period was measured); (C) production records (daily); and (d), total egg weight, egg shell weight, and egg specific gravity (measured on three consecutive days each week). Serum samples were taken once, from 10 randomly selected hens from each treatment group, and saved for future study.
(§2) After the two week pre-molt adjustment period, the hens were randomly assigned to each of eight different groups. These treatment groups were as follows: (1) control, (2) forced molt, (3) chemical molt-injected, (4) vehicle control-injected, (5) chemical molt-microcapsules A, (6) vehicle control-microcapsules A, (7) chemical molt-microcapsules B, and (8) vehicle control-microcapsules B.
(§3) [D-Trp^6 ]LHRH was used as the LHRH receptor ligand for the chemical molt groups. The "chemical molt-injected" group received intramuscular (breast) injections of 25 micrograms/day of [D-Trp^6 ]LHRH for 10 consecutive days beginning on day 14. Alternate pectoral (breast) areas were injected each day. The "chemical molt-microcapsule" groups received a single intramuscular (breast) injection of microencapsulated [D-Trp^6 ]LHRH on day zero. This preparation of microcapsules provided a controlled release of 25 micrograms [D-Trp^6 ]LHRH per day for 15 consecutive days.
(§4) On day 14, the microcapsule injected groups received intramuscular injections of lactide/glycolide copolymer microcapsules which had [D-Trp^6 ]LHRH incorporated therein. The ligand-containing microcapsules administered the "Microcapsules A" group were prepared and supplied by Debiopharm (Lausanne, Switzerland). These microcapsules were prepared by a phase-separation process to produce a free-flowing powder of spherical particles consisting of [D-Trp^6 ]LHRH (2% wt/wt) distributed within a polymeric matrix of 53:47(mol %) poly(DL-lactide-co-glycolide) (98% wt/wt) with an inherent viscosity of 0.7 dl/g. The microcapsules were 50 micrometers or less in diameter. […] Photomicrographs of similar microcapsules are presented in T. W. Redding, et al., Proc. Natl. Acad. Sci. U.S.A., 81, 5845 (Sept. 1984).
The remaining hens were maintained for a three month production period, during which the following parameters were measured: a. body weight (weekly for the first month and then twice a month); b. feed consumption (measured weekly); c. egg production (measured daily); and d. egg weight, shell weight and specific gravity (measured for three consecutive days each week for the first month, and then three consecutive days every two weeks).

[2] = tested on: single combed White Leghorn hens; test: Hen-day egg production; assay type: in vivo
Description: as §1, §2
The hens then received a seven day pre-molt treatment of a 24 hour light, zero hour dark photoperiod. On day 14 of the experiment the photoperiod was then reduced to natural day length for all treatments. Feed was made available ad libitum for all groups except the forced molt group. The forced molt group was deprived of food, but not of water, until a 30% body weight loss occurred (10 days of fasting).
as §3, §4
Microcapsules were suspended in disposable syringes in vehicle containing 2% carboxymethyl cellulose and 1% "TWEEN 20" in water. After thoroughly mixing the suspension, aliquots calculated to have released a dose of 25 micrograms/day for 15 consecutive days were injected into the breast muscle of the hens. We weighed the microcapsules directly into disposable 3 ml syringes. The plunger of a plugged syringe containing microcapsules (without vehicle) was pulled back to the 1.5-2 cc mark. The hub of the syringe was then placed against a vortex mixer and the syringe vortexed rapidly for about 20 seconds, or until most of the clumps of microbeads were broken and distributed along the barrel of the syringe. An 18 gauge needle was then attached and 0.7 to 1.0 ml of […] injection vehicle was drawn into the syringe. With the needle in an upward position, the syringe was again placed against a vortex mixer and vortexed rapidly for 20 seconds, or until a suspension of microbeads was formed in the vehicle. […]

[3] = target: T1, LHRH receptor (Homo sapiens, UniProt P30968); settings: described in U.S. Pat. No. 4,010,125; cited from earlier work
T1 sequence (P30968 1-328): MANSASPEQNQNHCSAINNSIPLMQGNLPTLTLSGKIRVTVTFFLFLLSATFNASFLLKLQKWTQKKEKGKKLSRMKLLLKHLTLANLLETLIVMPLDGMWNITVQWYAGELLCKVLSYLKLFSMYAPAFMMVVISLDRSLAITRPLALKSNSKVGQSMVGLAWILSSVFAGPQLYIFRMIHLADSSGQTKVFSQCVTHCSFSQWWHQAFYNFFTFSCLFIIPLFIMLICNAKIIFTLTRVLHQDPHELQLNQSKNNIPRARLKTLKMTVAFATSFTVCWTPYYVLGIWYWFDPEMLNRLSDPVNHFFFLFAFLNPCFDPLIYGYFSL

[4] = Week 1 = days zero-2, before treatment
[5] = Week 2 = days 6-8, before treatment

[D-Trp^6 ]LHRH [D-Trp^6 --LHRH]
EGG SHELL WEIGHT [1, 4]: 5.46 g
EGG SPECIFIC GRAVITY [1, 4]: 1.079 (g/cm)^3
TOTAL EGG WEIGHT [1, 4]: 66.04 g
EGG SHELL WEIGHT [1, 5]: 5.82 g
EGG SPECIFIC GRAVITY [1, 5]: 1.082 (g/cm)^3
TOTAL EGG WEIGHT [1, 5]: 67.72 g
EGG SHELL WEIGHT ([1]; Week 3 = days 40-42): 5.15 g
EGG SPECIFIC GRAVITY ([1]; Week 3 = days 40-42): 1.075 (g/cm)^3
TOTAL EGG WEIGHT ([1]; Week 3 = days 40-42): 64.38 g
EGG SHELL WEIGHT ([1]; Week 4 = days 47-49): 5.61 g
EGG SPECIFIC GRAVITY ([1]; Week 4 = days 47-49): 1.079 (g/cm)^3
TOTAL EGG WEIGHT ([1]; Week 4 = days 47-49): 68.27 g
EGG SHELL WEIGHT ([1]; Week 5 = days 54-56): 5.79 g
EGG SPECIFIC GRAVITY ([1]; Week 5 = days 54-56): 1.079 (g/cm)^3
TOTAL EGG WEIGHT ([1]; Week 5 = days 54-56): 68.81 g
EGG SHELL WEIGHT ([1]; Week 6 = days 61-63): 5.65 g
EGG SPECIFIC GRAVITY ([1]; Week 6 = days 61-63): 1.080 (g/cm)^3
TOTAL EGG WEIGHT ([1]; Week 6 = days 61-63): 67.4 g
EGG SHELL WEIGHT ([1]; Week 7 = days 75-77): 5.59 g
EGG SPECIFIC GRAVITY ([1]; Week 7 = days 75-77): 1.079 (g/cm)^3
TOTAL EGG WEIGHT ([1]; Week 7 = days 75-77): 67.19 g
quality of eggs produced after the molt ([1]; compared with conventional Forced Molted Group): as good in quality as the eggs produced by the conventional Forced Molted Group
HEN-DAY EGG PRODUCTION Reported By Weeks ([2]; listed as Day 5): 61.508%
HEN-DAY EGG PRODUCTION Reported By Weeks ([2]; listed as Day 12): 26.984%
HEN-DAY EGG PRODUCTION Reported By Weeks ([2]; listed as Day 17): 4.683%
HEN-DAY EGG PRODUCTION Reported By Weeks ([2]; listed as Day 22): 7.619%
HEN-DAY EGG PRODUCTION Reported By Weeks ([2]; listed as Day 27): 30.000%
HEN-DAY EGG PRODUCTION Reported By Weeks ([2]; listed as Day 33): 58.095%
HEN-DAY EGG PRODUCTION Reported By Weeks ([2]; listed as Day 40): 63.333%
HEN-DAY EGG PRODUCTION Reported By Weeks ([2]; listed as Day 47): 67.143%
HEN-DAY EGG PRODUCTION Reported By Weeks ([2]; listed as Day 54): 76.667%
HEN-DAY EGG PRODUCTION Reported By Weeks ([2]; listed as Day 61): 80.000%
HEN-DAY EGG PRODUCTION Reported By Weeks ([2]; listed as Day 75): 76.667%
HEN-DAY EGG PRODUCTION Reported By Weeks ([2]; listed as Day 82): 73.889%
HEN-DAY EGG PRODUCTION Reported By Weeks ([2]; listed as Day Zero): 63.889%
duration of activity [3]: prolonged activity
